Measured values: ChEMBL document CHEMBL5729160, “Lysophosphatidic acid receptor 1 (LPAR1) inhibitor compounds” (2022)

What was measured:
[1] = target: T1, Lysophosphatidic acid receptor 3 (Homo sapiens, UniProt Q9UBY5); test: LPAR3 Calcium Flux Assays: A cDNA encoding the human LPAR3 receptor is synthesized and cloned into pDNA3 expression plasmid. The plasmid is transfected in U2OS cells using Lipofectamine 2000 (Invitrogen Corp., USA). Clones stably expressing human LPAR3 are selected using neomycin and identified as cells that show Ca-influx in response to LPA.U2OS cells overexpressing human LPAR3 are seeded at 20,000-40,000 cells per well in a 96-well poly-D-lysine coated plate one day before the assay. Prior to the assay, the cells are washed once with assay buffer (HBSS containing 20 mM HEPES and 0.2% BSA) and then incubated in 50 μl of assay buffer for 60 minutes. Then 50 μl of a calcium indicator dye (Fluo-4 NW, Molecular Probes) are added to each well and incubation is continued for 30 minutes at 37° C. and then 30 minutes at room temperature. 50 μl of test compounds in 4% DMSO are added to the cells and incubation continued at room temperature for 40 minutes. Cells are stimulated by the addition of 50 μl of 128 nM LPA and intracellular calcium is measured using the FLIPR TETRA (Molecular Devices). IC50 values are determined using “Genedata Screener” analysis tool.; type: cell-based
T1 sequence (Q9UBY5 whole entry): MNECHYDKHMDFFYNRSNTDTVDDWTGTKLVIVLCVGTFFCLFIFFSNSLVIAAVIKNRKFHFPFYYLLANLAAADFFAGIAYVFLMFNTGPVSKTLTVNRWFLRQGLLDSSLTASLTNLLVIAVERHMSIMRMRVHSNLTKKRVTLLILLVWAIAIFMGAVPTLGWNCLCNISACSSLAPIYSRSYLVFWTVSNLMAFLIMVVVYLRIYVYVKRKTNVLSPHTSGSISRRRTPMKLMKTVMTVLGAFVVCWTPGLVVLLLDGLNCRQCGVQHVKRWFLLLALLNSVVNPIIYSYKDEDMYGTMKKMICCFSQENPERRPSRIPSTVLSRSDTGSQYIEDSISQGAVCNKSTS

[2] = target: Lysophosphatidic acid receptor 1 (Homo sapiens, UniProt Q92633); test: LPAR1 Calcium Flux Assays: A cDNA encoding the human LPAR1 receptor is synthesized and cloned into pDNA3 expression plasmid. The plasmid is transfected in U937 cells using Lipofectamine 2000 (Invitrogen Corp., USA). Clones stably expressing human LPAR1 are selected using […] and identified as cells that show Ca-influx in response to LPA.U937 cells overexpressing human LPAR1 are seeded at 100,000 cells per well in a 96-well fibronectin (10 ug/ml) coated plate in 60 μl of assay buffer (HBSS containing 20 mM HEPES and 0.2% BSA) and then incubated for 60 minutes. Then 50 μl of a calcium indicator dye (Fluo-4 NW, Molecular Probes) are added to each well and incubation continued for 30 minutes at 37° C. and then 30 minutes at room temperature. 50 μl of test compounds in 4% DMSO are added to the cells and incubation continued at room temperature for 40 minutes. Cells are the stimulated by the addition of 50 μl of 128 nM LPA and intracellular calcium is measured using the FLIPR TETRA (Molecular Devices). IC50 values are determined using “Genedata Screener” analysis tool.; type: cell-based
Sequence of Lysophosphatidic acid receptor 1 (Q92633 whole entry): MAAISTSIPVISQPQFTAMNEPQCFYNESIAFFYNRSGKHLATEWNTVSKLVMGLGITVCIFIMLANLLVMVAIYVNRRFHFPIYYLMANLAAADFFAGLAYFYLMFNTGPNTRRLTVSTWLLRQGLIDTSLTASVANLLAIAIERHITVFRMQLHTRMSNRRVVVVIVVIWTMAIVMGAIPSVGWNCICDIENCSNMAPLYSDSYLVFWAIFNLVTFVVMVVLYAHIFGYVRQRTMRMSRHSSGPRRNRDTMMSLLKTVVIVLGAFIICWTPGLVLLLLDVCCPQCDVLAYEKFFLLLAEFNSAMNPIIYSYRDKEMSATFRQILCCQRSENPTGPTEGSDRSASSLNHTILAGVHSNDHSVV

IC50 [1]: > 10000 nM
IC50 [2]: 22 nM
Structure (SMILES): Cn1ncc(-c2ccc(-c3ccc(C4(C(=O)O)CC4)c(C(F)(F)F)c3)cn2)c1Nc1cncc(OC2CC2)n1
